In patent US20250213587A1, “ITK INHIBITORS FOR INCREASING TH1 CELL ACTIVITY” (Corvus Pharmaceuticals, Inc., priority 2022, published 2025):
Entries after “also recorded” stand apart in the source; their conditions may differ.

Columns and labels:
ITK = molecular target: T1, ITK (Canis lupus familiaris, UniProt A0A8I3MMK2); assay: ITK occupancy in dog PBMC; format: in vivo; conditions: po, single 5 mg/kg PO
T1 construct: from tissue; host or cells: PBMC of dosed dogs
Protocol: The active site occupancy of ITK by a covalent inhibitor was measured using an irreversibly bound biotinylated probe in an immuno-electrochemiluminescence assay. The binding of an inhibitor and the probe to the ATP binding site is mutually exclusive. In lysates of immune cell lines or immune cells collected from treated animals, the biotinylated probe reacts with free (uninhibited) ITK and is subsequently captured on a streptavidin-coated surface and quantified. The free ITK in each sample is normalized by dividing it by either the lysate protein concentration (BCA protein assay, Pierce) or cell count of the sample. Normalized free ITK values are generated for samples collected prior to and after treatment from which occupancy was calculated using equation 7. Single cell suspensions of Jurkat cells, mouse splenocytes, dog PBMC or purified normal human T cells were prepared. Cell lysis was performed using a buffer containing CelLytic M (Sigma Aldrich) supplemented with protease and phosphatase inhibitors (Pierce). The cell pellet resuspended in lysis buffer was incubated at room temperature for 30 minutes when the lysate was clarified by centrifugation at 20,000×g for 5 minutes at 4° C. […] Read buffer (Mesoscale Diagnostics) diluted two-fold with water was dispensed into the wells of the plate which was read immediately using an MESO Quickplex SQ 120 instrument.

[1] = test system: imiquimod-induced psoriasis; assay: Imiquimod-induced model of psoriasis; conditions: in vivo
[2] = test system: NK cells with anti-CD20 bound Jeko target cells; assay: NK-mediated ADCC; format: cell-based, human; conditions: 1 μM, 18 hours
Protocol: FIGS. 9A-9B show selective Inhibition of ITK preserved NK-mediated ADCC. FIG. 9A: Lymphocyte subsets (5 donors/cell type) were purified from the peripheral blood of 22 healthy donors. The expression of ITK and RLK, relative to the house keeping gene IPO8, were determined by qPCR. FIG. 9B: Peripheral blood NK cells from 7 healthy donors were co-cultured at a 10:1 ratio with anti-CD20 bound target cells (B-cell lymphoma line Jeko) and with inhibitors for 18 hours. Cell lysis was detected by viability dye using flow cytometry. The % dead target cells in samples treated with DMSO were set as the maximum lysis (100%).
NK cells express both ITK and RLK (FIG. 9A). […] Peripheral blood NK cells from 7 healthy donors were co-cultured with an anti-CD20 bound target B-cell line at a ratio of 10:1 for 18 hours in the presence of the inhibitors over a range of concentrations up to 1 μM. Cell lysis was detected by flow cytometry using viability dye staining.

[3] = test system: colitis in C.B-17 SCID mice; assay: Mouse T cell adoptive transfer colitis model; format: in vivo
Protocol: To enable long-term dosing in animal studies, a CPI-818-formulated mouse diet (300 mg/kg/day), and a control diet, with macronutrient levels matching the common Teklad 2018 diet were created (Research Diets, Inc.). Adequate drug exposure was confirmed by standard LC-MS method in plasma samples. Female BALB/c mice (11-12 weeks old) and female Fox Chase C.B-17 severe combined immunodeficient (SCID) mice (6-7 weeks old) were purchased from Charles River Laboratories. […] A third group on control diet was treated weekly via intraperitoneal (IP) route with 0.5 mg/mouse of anti-IL-12 p40 (clone C17.8) (BioXcell BE0051). On study day 0, SCID mice were injected IP with 4×10^5 CD4^+CD45RB^hi splenic T cells from BALB/c mice. On study day 48, animals were sacrificed. Colons were harvested for measurements. The distal section was preserved in 10% neutral buffered formalin, embedded into paraffin blocks, and sent to HistoTox Labs, Inc. for histologic analyses. Therapeutic efficacy was based on body weights, colon weights, and colon lengths. This study was carried out at Bolder BioPATH, Inc. in accordance with the test facility standard operating procedures, the World Health Organization Quality Practices in Basic Biomedical Research guidelines, and in compliance with all state and federal regulations.
Each slide containing 3 cross sections of the distal colon from each animal was stained with hematoxylin and eosin (H&E), or with an anti-CD3 antibody, and evaluated by a board-certified veterinary pathologist blinded to treatment information. Histologic lesions in H&E-stained slides were scored separately for severity 0-5, where 0=absent, 1=minimal, 2=mild, 3=moderate, 4=marked, 5=severe. Anti-CD3-stained slides were scanned using an Aperio AT2 whole slide scanner. Exclusions were applied to remove debris and tissue artifacts from the analyzed area. An algorithm was applied to the samples using Visiopharm (VIS) image analysis software. A count-based thresholding method was utilized to determine positivity of each pixel on the slide. The average of the three colon samples per slide was taken to determine both the number of immunolabeled CD3 cells and the total area of the colon. The output images underwent a quality control check after analysis was complete. CD3-immunolabeled cell density was calculated per 10,000 μm^2 using the following formula: […]
The body weights over time between two groups of animals were compared using the two-way analysis of variance (2-way ANOVA) method. Organ weights or lengths were compared using a Student's unpaired, two-tailed, t-test with Welch's correction. All statistical analyses were performed using Prism Version 8.3.0 (GraphPad Software).

Fyn = Fyn (Homo sapiens, UniProt P06241); assay: Human kinome profiling at 1.0 μM, Fyn; format: biochemical; conditions: read-out: percent control, Fyn
Chain of Fyn (P06241 whole entry): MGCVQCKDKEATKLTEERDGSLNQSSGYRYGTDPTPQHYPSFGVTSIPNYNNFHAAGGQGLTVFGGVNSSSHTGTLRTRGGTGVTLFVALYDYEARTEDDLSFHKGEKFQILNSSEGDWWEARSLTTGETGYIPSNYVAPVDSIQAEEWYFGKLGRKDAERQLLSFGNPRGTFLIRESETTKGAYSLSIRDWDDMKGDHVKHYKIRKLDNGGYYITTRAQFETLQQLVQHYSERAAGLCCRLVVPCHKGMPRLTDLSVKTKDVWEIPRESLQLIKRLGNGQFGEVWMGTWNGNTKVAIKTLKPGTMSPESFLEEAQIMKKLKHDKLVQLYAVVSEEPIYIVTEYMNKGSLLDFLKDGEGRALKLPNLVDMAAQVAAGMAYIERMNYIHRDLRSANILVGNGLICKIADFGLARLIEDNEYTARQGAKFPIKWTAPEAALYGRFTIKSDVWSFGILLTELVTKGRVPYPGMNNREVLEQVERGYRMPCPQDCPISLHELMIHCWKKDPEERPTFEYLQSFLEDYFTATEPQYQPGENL

T1 sequence (A0A8I3MMK2 1-620): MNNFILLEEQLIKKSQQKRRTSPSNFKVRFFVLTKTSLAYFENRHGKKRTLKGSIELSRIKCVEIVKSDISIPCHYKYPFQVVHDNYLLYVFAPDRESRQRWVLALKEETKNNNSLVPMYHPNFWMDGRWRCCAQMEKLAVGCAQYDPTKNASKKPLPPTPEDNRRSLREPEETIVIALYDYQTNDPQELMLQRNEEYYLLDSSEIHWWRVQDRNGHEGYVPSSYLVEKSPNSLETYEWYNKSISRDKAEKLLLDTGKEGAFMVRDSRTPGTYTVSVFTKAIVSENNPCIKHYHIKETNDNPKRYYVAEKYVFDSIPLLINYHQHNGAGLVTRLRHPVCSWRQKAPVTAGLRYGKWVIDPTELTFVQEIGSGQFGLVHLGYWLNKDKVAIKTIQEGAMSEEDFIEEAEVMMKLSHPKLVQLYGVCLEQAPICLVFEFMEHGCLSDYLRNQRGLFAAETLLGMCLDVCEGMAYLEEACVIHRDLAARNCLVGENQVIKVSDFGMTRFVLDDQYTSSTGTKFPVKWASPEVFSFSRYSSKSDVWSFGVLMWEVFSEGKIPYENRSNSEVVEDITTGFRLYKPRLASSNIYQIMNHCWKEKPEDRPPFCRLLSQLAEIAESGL

receptor occupancy at 5 mg/kg (ITK; 2 h): 91%
receptor occupancy at 5 mg/kg (ITK; 24 h): 31%
remaining activity at 1 µM (Fyn): 99%
SMILES: C=CC(=O)N1CCCN(C(=O)c2cc(Sc3cnc(NC(=O)C4CC4)s3)c(C)cc2OC)C[C@H]1C [CPI-818]
dermal inflammation [1]: significantly reduced
skin thickening [1]: significantly reduced
decrease of ADCC [2]: 20%
protection from colitis (diarrhea, weight loss) ([3]; diet 300 mg/kg/day from one week before transfer): protected from colitis
infiltration of CD3+ T cells in colon ([3]; histology): blocked the infiltration of CD3^+ T cells; also recorded: prevented infiltration of CD3+ T cells
severity of histologic lesions ([3]; inflammation, mucosal necrosis, epithelial hyperplasia, submucosa edema): significantly reduced the severity
colon weights and lengths ([3]; necropsy 7 weeks post-transfer): within the ranges of naïve animals
